From ChEMBL document CHEMBL5537115, “New broad-spectrum and potent antibacterial agents with dual-targeting mechanism: Promoting FtsZ polymerization and disrupting bacterial membranes” (Eur J Med Chem, 2024) come the findings set out here.

Experiment [1] relates to Staphylococcus aureus. Description: Antibacterial activity against erythromycin-susceptible Staphylococcus aureus ATCC25923 incubated for 18 to 24 hrs. It counts as functional. As to conditions: time 18-24 hrs.
Experiment [2] has as its target T1, Cell division protein FtsZ (Bacillus subtilis) (UniProt A5Z1V5).
T1 sequence (whole entry): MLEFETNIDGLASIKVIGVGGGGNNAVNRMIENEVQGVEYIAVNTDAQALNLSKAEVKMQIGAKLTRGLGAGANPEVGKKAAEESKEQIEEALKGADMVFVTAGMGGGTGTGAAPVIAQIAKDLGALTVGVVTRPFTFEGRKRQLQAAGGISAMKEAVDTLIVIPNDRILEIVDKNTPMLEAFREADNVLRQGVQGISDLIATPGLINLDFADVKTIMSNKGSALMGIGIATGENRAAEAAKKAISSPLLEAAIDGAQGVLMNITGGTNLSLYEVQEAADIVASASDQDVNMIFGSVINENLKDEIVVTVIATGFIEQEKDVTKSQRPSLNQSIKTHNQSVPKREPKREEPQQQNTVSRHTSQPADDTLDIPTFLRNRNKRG
Description: Induction of FtsZ polymerization in Bacillus subtilis assessed as bundling of FtsZ protofilaments at 10 ug/ml preincubated for 15 mins followed by GTP addition measured after 10 mins by TEM analysis. As to conditions: dose 10.0 µg/ml, time 25.0 min.

For another experiment, the system named is Enterococcus faecalis. In words: Antibacterial activity against vancomycin-resistant Enterococcus faecalis ATCC51299 assessed as bacterial growth inhibition incubated for 20 hrs by CLSI based broth microdilution method. The format is functional. For orientation: Dilution methods test growth across graded concentrations, often in twofold steps.
In experiment [3] the test system is Escherichia coli. In words: Induction of membrane potential depolarization in Escherichia coli ATCC25922 measured after 20 mins by diSC35 dye based spectroscopy. It counts as functional, organism-based.
For experiment [4], the system named is Acinetobacter baumannii. In words: Antibacterial activity against Acinetobacter baumannii ATCC19606 assessed as bacterial growth inhibition incubated for 20 hrs by CLSI based broth microdilution method. It counts as functional.
Experiment [5] concerns Enterococcus faecium. In words: Antibacterial activity against vancomycin-resistant Enterococcus faecium ATCC51559 assessed as bacterial growth inhibition incubated for 20 hrs by CLSI based broth microdilution method. It counts as functional.
In experiment [6] the test system is Escherichia coli. In words: Antibacterial activity against penicillin-susceptible Escherichia coli ATCC25922 assessed as bacterial growth inhibition incubated for 20 hrs by CLSI based broth microdilution method. It counts as functional.
Experiment [7] relates to Staphylococcus aureus. Description: Inhibition of bacterial proliferation of Staphylococcus aureus ATCC25923 at 0.125 ug/ml measured for 24 hrs by time-kill assay. It counts as functional, organism-based. The settings on record: dose 0.125 µg/ml.
The test system of experiment [8] is Escherichia coli. Description: Disruption of inner membrane in Escherichia coli ATCC25922 by PI staining based analysis. The format is functional, organism-based. As to conditions: time 12.0 min, TDE = time-dependent effect.
The test system of experiment [9] is Acinetobacter baumannii. Description: Selectivity ratio of MBC for Acinetobacter baumannii ATCC19606 to MIC for Acinetobacter baumannii ATCC19606. The format is functional.
For experiment [10], the system named is Staphylococcus aureus. Description: Antibacterial activity against Staphylococcus aureus clinical isolate incubated for 18 to 24 hrs. The settings on record: time 18-24 hrs. The format is functional.
Another experiment deals with Bacillus subtilis. Description: Antibacterial activity against penicillin-susceptible Bacillus subtilis ATCC9372 assessed as bacterial growth inhibition incubated for 20 hrs by CLSI based broth microdilution method. It counts as functional.
Experiment [11] concerns Staphylococcus aureus. Description: Bactericidal activity against Staphylococcus aureus ATCC25923 assessed as log reduction in bacterial growth at 0.25 to 0.5 ug/ml measured for 9 to 12 hrs by time-kill assay. It counts as functional. The settings on record: dose 0.25-0.5 µg/ml; time 9-12 hrs.
The subject of experiment [12] is Enterococcus faecium. Description: Antibacterial activity against vancomycin-susceptible Enterococcus faecium ATCC19434 assessed as bacterial growth inhibition incubated for 20 hrs by CLSI based broth microdilution method. The format is functional.
Experiment [13] relates to Staphylococcus aureus. Description: Antibacterial activity against methicillin-resistant Staphylococcus aureus ATCC43300 incubated for 18 to 20 hrs. The format is functional. As to conditions: time 18-20 hrs.
Experiment [14] relates to Escherichia coli. In words: Disruption of inner membrane in Escherichia coli ATCC25922 measured after 12 mins by PI staining based analysis. The format is functional, organism-based.

Calls of active or inactive are those of the source.

With `C[n+]1cc(-c2ccccc2)c(/C=C/c2ccc(C(C)(C)C)cc2)cc1-c1ccc(C(C)(C)C)cc1.[I-]`, the MBC in the experiment with Staphylococcus aureus [1] came out at 0.25 µg/mL; against Staphylococcus aureus [10] it was 0.125 µg/mL; in the experiment on Staphylococcus aureus [13], 0.5 µg/mL. Moreover, in experiment [2], the result was Active. Also, the MIC turned out to be 0.5 µg/mL with Enterococcus faecalis; 0.5 µg/mL in the experiment on Acinetobacter baumannii [4]; 0.5 µg/mL with Enterococcus faecium [5]; 4 µg/mL in the experiment with Escherichia coli [6]; 0.125 µg/mL in the experiment with Bacillus subtilis; 0.125 µg/mL in the experiment on Enterococcus faecium [12]. Moreover, the Activity entry in the experiment with Escherichia coli [3] was “Dose-Dependent Effect”; in the experiment on Escherichia coli [8], “Tde”; with Staphylococcus aureus [11], 0 log10CFU/ml; in the experiment on Escherichia coli [14] it was “Dose-Dependent Effect”. Further, the inhibition entry in the experiment on Staphylococcus aureus [7] was “inactive”. Further, the Ratio with Acinetobacter baumannii [9] is 2.

Broadly, the MBC is the smallest concentration meeting the test's criterion for killing. As usually defined, the MIC is the least concentration at which growth counts as inhibited.
